Results from US20230414701A1, “COMPOSITION FOR PREVENTING, AMELIORATING, OR TREATING COGNITIVE DYSFUNCTION DISEASE, COMPRISING PEPTIDE HAVING SYNAPTIC PLASTICITY CONTROL FUNCTION” (UIF (University Industry Foundation), Yonsei University, priority 2020, published 2023).

How the values were obtained:
PSD-95 protein = assay: Western blotting of PSD-95 protein expression in Aβ42-treated cells; assay type: cell-based; conditions: FIG. 7
Experimental: To identify what role MIC-1 plays in improving the cognitive function of MIC-1 according to the present invention, the present inventors, as shown in Example 5, an experiment was performed as follows. Specifically, the change in expression level of the PSD-95 protein known to play an important role in cognitive function was analyzed through Western blotting using a 12% acrylamide gel. For example, it is known that, when cells are treated with Aβ42, compared to normal cells, the amount of PSD-95 protein decreases and cognitive function decreases, resulting in deterioration of memory.

[1] = test system: hippocampal tissue section from APP/PS1 Alzheimer's disease animal model; assay: fEPSP amplitude (long-term potentiation) in hippocampal tissue sections; parameters: species or system mouse; conditions: 1 μM, 1 hour and 40 minutes, compared to control peptide material; FIG. 6
Experimental: Specifically, the brain was extracted from an APP/PS1 Alzheimer's disease animal model, and then transferred to a 4° C. sucrose-artificial cerebrospinal fluid solution (195.5 sucrose, 2.5 KC1, 1 NaH2PO4, 32.5 NaHCO3, 11 glucose, 2 NaPyruvate, 1 NaL-ascorbate, 5 MgSO4, 0.5 CaCl2 (95% O2/5% CO2). Subsequently, brain tissue was cut into coronal sections (400 μm) using a microtome, a hippocampal tissue section was transferred to a 35° C. artificial cerebrospinal fluid solution (128.5 NaCl2, 2.5 KCl, 1 NaH2PO4, 21.7 NaHCO3, 11 glucose, 2 NaPyruvate, 1 NaL-ascorbate, 5 MgSO4, 1 CaCl2 (95% O2/5% CO2)) and incubated for 30 minutes to restore the function of the tissue. Subsequently, an experiment was performed for 1 hour and 40 minutes while flowing MIC-1 according to the present invention at a concentration of 1 μM from the beginning until the end of the experiment using gravity, and then the amplitude of field excitatory postsynaptic potential (fEPSP) was measured.

CCNY protein = CCNY protein (Homo sapiens, UniProt Q8ND76); assay: ELISA of binding capacity of peptides to CCNY; conditions: treated at 10, 100 or 1000 μg/mL; CCNY immobilized on plate; FIG. 5
Experimental: To examine which of MIC-1 and cyclo MIC-1 according to the present invention easily binds to CCNY, the present inventors conducted an experiment using ELISA. To this end, CCNY was immobilized on a plate, MIC-1 and cyclo MIC-1 were treated at 10, 100 or 1000μg/mL, biotin was bound to the MIC-1 and cyclo MIC-1, and then the optical density of HRP was measured after treating streptavidin-HRP.

ICR mouse models = assay: Y-maze behavioral experiment, scopolamine-induced memory loss; assay type: in vivo; conditions: 20 mpK intravenous twice for one week, then scopolamine 1 mpK i.p. 30 minutes before test; 7-week-old male ICR mice; FIG. 8
Experimental: In Example 6-1, it was confirmed that MIC-1 can enhance the expression level of the PSD-95 protein known to be associated with cognitive function, and based on this, a behavioral experiment for mouse models was designed. Specifically, among ICR mouse models, 7-week-old male mouse models were used and divided into a control and two experimental groups (scopolamine-treated group and group administered MIC-1 and then treated with scopolamine) to perform the experiment.
MIC-1 was administered into a mouse twice via intravenous administration at 20 mpK for one week. […] Therefore, to induce such memory loss, 30 minutes before the Y-maze behavioral experiment, scopolamine was intraperitoneally administered at 1 mpK to the experimental groups, resulting in memory deterioration.

CCNY protein, sequence (Q8ND76 whole entry, species assumed): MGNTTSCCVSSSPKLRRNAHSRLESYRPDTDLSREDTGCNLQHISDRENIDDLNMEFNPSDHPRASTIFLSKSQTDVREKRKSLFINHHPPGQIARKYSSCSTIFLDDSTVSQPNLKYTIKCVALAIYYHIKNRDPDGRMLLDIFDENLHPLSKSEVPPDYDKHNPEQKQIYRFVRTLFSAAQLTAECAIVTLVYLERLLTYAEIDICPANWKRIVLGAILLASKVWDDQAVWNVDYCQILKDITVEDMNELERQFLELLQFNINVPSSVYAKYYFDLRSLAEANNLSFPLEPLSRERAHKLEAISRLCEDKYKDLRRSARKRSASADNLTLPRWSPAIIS

## MIC-1: Peptide of SEQ ID NO: 1 (PFTAIRE sequence of Cdk14) in which both termini are modified (Ac-PFTAIRE-NH2)
PSD-95 protein
  level of the PSD-95 protein: the level of the PSD-95 protein is increased
[1]
  fEPSP amplitude: the fEPSP amplitude increases
CCNY protein
  binding to the CCNY protein (ELISA, optical density of HRP): can remarkably bind to the CCNY protein
ICR mouse models
  alternation (memory) in Y-maze: the memory is improved up to the control level
